Kd data for one compound are collected here from ChEMBL document CHEMBL3621134, “Cyclic Peptides Incorporating Phosphotyrosine Mimetics as Potent and Specific Inhibitors of the Grb7 Breast Cancer Target” (J Med Chem, 2015).

This experiment has as its target T1, Growth factor receptor-bound protein 10 (Homo sapiens, UniProt Q13322).
T1 sequence (Q13322 whole entry): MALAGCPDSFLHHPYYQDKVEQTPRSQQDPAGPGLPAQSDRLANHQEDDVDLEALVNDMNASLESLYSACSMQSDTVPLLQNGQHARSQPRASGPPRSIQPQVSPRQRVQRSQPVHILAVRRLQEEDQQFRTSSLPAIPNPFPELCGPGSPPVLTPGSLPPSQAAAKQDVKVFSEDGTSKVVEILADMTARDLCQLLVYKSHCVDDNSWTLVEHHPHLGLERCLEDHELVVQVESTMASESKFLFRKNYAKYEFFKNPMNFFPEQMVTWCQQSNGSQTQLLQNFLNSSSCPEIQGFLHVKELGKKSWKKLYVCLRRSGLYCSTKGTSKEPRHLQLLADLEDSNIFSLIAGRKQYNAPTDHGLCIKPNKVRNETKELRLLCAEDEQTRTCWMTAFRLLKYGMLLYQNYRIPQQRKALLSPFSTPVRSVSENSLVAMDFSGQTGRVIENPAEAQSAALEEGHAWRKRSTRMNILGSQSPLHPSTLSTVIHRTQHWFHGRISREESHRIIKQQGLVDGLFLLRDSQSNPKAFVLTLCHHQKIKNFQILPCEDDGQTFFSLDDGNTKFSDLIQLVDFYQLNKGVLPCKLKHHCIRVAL
In words: Binding affinity to GST-tagged Grb10-SH2 domain (471 to 594 amino acid residues) (unknown origin) expressed in Escherichia coli BL21 (DE3) using 20 mM Tris/1 mM NaPO4 buffer by SPR analysis. (SPR reads the build-up and loss of mass on a sensor chip optically.)

For the compound `C[C@@H](O)[C@@H]1NC(=O)[C@H](CC(N)=O)NC(=O)[C@H](CC(=O)O)NC(=O)[C@H](Cc2ccc(O)cc2)NC(=O)CNC(=O)[C@H](CCC(=O)O)NC(=O)[C@H](Cc2ccccc2)NC(=O)[C@H](Cc2c[nH]c3ccccc23)NC(=O)CSC[C@@H](C(N)=O)NC(=O)[C@@H]2CCCN2C(=O)[C@H](Cc2ccccc2)NC1=O`, the Kd result is listed as “Not Active”.
